Assay results taken from PubChem BioAssay AID248 (DTP/NCI, 2004).
Inconclusive results and toxic doses are left out. Cut-off read from the data, not from the text of the source: active = T/C of 150% or more; inactive = T/C below 125%.

Test system: L1210 leukemia ip in BDF1 mice, survival T/C
Assay: NCI In Vivo Anticancer Drug Screen. Data for tumor model L1210 Leukemia (intraperitoneal) in B6D2F1 (BDF1) mice
Details: endpoint: mean survival time, higher = longer survival
Outline: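 Survival endpoint. Drug-treated group vs vehicle group, expressed as T divided by C. Tumor passaged by transplantation.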

[1] = dose: 100.0 mg/kg/injection, schedule: Q01DX001 (ip), vehicle: Klucel (hydroxypropylcellulose) (HPC)
[2] = dose: 200.0 mg/kg/injection, schedule: Q01DX001 (ip), vehicle: Klucel (hydroxypropylcellulose) (HPC)
[3] = dose: 400.0 mg/kg/injection, schedule: Q01DX001 (ip), vehicle: Klucel (hydroxypropylcellulose) (HPC)
[4] = dose: 100.0 mg/kg/injection, schedule: Q01DX009 (ip), vehicle: Klucel (hydroxypropylcellulose) (HPC)
[5] = dose: 200.0 mg/kg/injection, schedule: Q01DX009 (ip), vehicle: Klucel (hydroxypropylcellulose) (HPC)
[6] = dose: 400.0 mg/kg/injection, schedule: Q01DX009 (ip), vehicle: Klucel (hydroxypropylcellulose) (HPC)
[7] = dose: 50.0 mg/kg/injection, schedule: Q01DX009 (ip), vehicle: saline with Tween-80
[8] = dose: 100.0 mg/kg/injection, schedule: Q01DX009 (ip), vehicle: saline with Tween-80
[9] = dose: 200.0 mg/kg/injection, schedule: Q01DX009 (ip), vehicle: saline with Tween-80
[10] = dose: 100.0 mg/kg/injection, schedule: Q04DX002 (ip), vehicle: Klucel (hydroxypropylcellulose) (HPC)
[11] = dose: 200.0 mg/kg/injection, schedule: Q04DX002 (ip), vehicle: Klucel (hydroxypropylcellulose) (HPC)
[12] = dose: 400.0 mg/kg/injection, schedule: Q04DX002 (ip), vehicle: Klucel (hydroxypropylcellulose) (HPC)
[13] = dose: 100.0 mg/kg/injection, schedule: Q04DX003 (ip), vehicle: saline
[14] = dose: 200.0 mg/kg/injection, schedule: Q04DX003 (ip), vehicle: saline
[15] = dose: 400.0 mg/kg/injection, schedule: Q04DX003 (ip), vehicle: saline
[16] = dose: 100.0 mg/kg/injection, schedule: Q04DX003 (ip), vehicle: Klucel (hydroxypropylcellulose) (HPC)
[17] = dose: 200.0 mg/kg/injection, schedule: Q04DX003 (ip), vehicle: Klucel (hydroxypropylcellulose) (HPC)
[18] = dose: 400.0 mg/kg/injection, schedule: Q04DX003 (ip), vehicle: Klucel (hydroxypropylcellulose) (HPC)
[19] = dose: 100.0 mg/kg/injection, schedule: Q01DX001 (ip), vehicle: saline
[20] = dose: 200.0 mg/kg/injection, schedule: Q01DX001 (ip), vehicle: saline
[21] = dose: 400.0 mg/kg/injection, schedule: Q01DX001 (ip), vehicle: saline

Measured: T/C

C#CCCN1CCC2(CC1)C(=O)NCN2c1ccccc1
inactive: [1] 91 % of control | [2] 94 % of control | [3] 91 % of control

Cc1ccnc(NC(=O)Nc2cc(C)ccc2C)c1
inactive: [4] 94 % of control | [5] 91 % of control | [6] 92 % of control

O=C(O)/C(=C(/Cc1ccccc1)C(=O)c1ccccc1)c1ccccc1
inactive: [7] 98 % of control | [8] 88 % of control | [9] 91 % of control

O=c1c(Cl)c(C(Cl)(Cl)Cl)[nH]c2ccccc12
inactive: dose: 25.0 mg/kg/injection, schedule: Q01DX001 (ip), vehicle: saline with Tween-80 104 % of control | dose: 50.0 mg/kg/injection, schedule: Q01DX001 (ip), vehicle: saline with Tween-80 106 % of control

CN1CC(C)(C)C(=O)c2ccccc21
inactive: dose: 100.0 mg/kg/injection, schedule: Q04DX002 (ip), vehicle: other 95 % of control | dose: 200.0 mg/kg/injection, schedule: Q04DX002 (ip), vehicle: other 103 % of control | dose: 400.0 mg/kg/injection, schedule: Q04DX002 (ip), vehicle: other 103 % of control

O=C(O)c1cccc2c1OCO2
inactive: [7] 112 % of control | [8] 98 % of control | dose: 100.0 mg/kg/injection, schedule: Q04DX002 (ip), vehicle: saline with Tween-80 103 % of control | [9] 98 % of control | dose: 200.0 mg/kg/injection, schedule: Q04DX002 (ip), vehicle: saline with Tween-80 95 % of control

CCCCCCCCCCCCCCCCOc1c(Cl)cc(Cl)cc1Cl
inactive: [10] 102 % of control | [11] 98 % of control | [12] 102 % of control

O=C(Oc1ccc(S(=O)(=O)F)cc1Cl)c1ccc(Cl)cc1
inactive: [10] 92 % of control | [11] 89 % of control | [12] 89 % of control

CNc1c(C)n(C)n(-c2ccccc2)c1=O.[Cl][Pd]([Cl])([Cl])[Cl]
inactive: dose: 50.0 mg/kg/injection, schedule: Q04DX003 (ip), vehicle: saline 106 % of control | [13] 111 % of control | [14] 100 % of control

CCOc1ccn(CC(=O)N2CCC3(CC2)SSC2(CCN(C(=O)Cn4ccc(OCC)nc4=O)CC2)S3)c(=O)n1
inactive: [13] 90 % of control | [14] 92 % of control | [15] 95 % of control

COC(=O)c1cc(NC(=O)Nc2ccc(F)c([N+](=O)[O-])c2)cc(C(=O)OC)c1
inactive: [4] 95 % of control | [5] 93 % of control | [6] 96 % of control

Cc1cc(=O)[nH]c2ccc(-c3ccc4[nH]c(=O)cc(C)c4c3)cc12
inactive: [4] 101 % of control | [16] 102 % of control | [5] 95 % of control | [17] 100 % of control | [6] 95 % of control | [18] 100 % of control

CN1CN(c2ccccc2)C2(CCN(CC3Cc4cc(F)ccc4O3)CC2)C1=O (centres undefined)
inactive: [1] 101 % of control | [2] 98 % of control | [3] 96 % of control

Cc1cc([N+](=O)[O-])cc([N+](=O)[O-])c1Cl
inactive: dose: 50.0 mg/kg/injection, schedule: Q01DX009 (ip), vehicle: Klucel (hydroxypropylcellulose) (HPC) 103 % of control | [4] 100 % of control | [16] 98 % of control | [17] 103 % of control

CCCCCCSCCO
inactive: [19] 94 % of control | [20] 94 % of control | [21] 93 % of control

c1ccc(-c2nc(N3CCOCC3)nc3ccccc23)cc1
inactive: [8] 94 % of control | [9] 90 % of control

COC(=O)C1CC(=O)C2(C)CCc3c(ccc4cc(OC)ccc34)C12 (centres undefined)
inactive: dose: 100.0 mg/kg/injection, schedule: Q01DX009 (sc), vehicle: steriod suspending solution 103 % of control | dose: 100.0 mg/kg/injection, schedule: Q04DX003 (sc), vehicle: steriod suspending solution 102 % of control | dose: 200.0 mg/kg/injection, schedule: Q01DX009 (sc), vehicle: steriod suspending solution 93 % of control | dose: 200.0 mg/kg/injection, schedule: Q04DX003 (sc), vehicle: steriod suspending solution 86 % of control | dose: 400.0 mg/kg/injection, schedule: Q01DX009 (sc), vehicle: steriod suspending solution 88 % of control | dose: 400.0 mg/kg/injection, schedule: Q04DX003 (sc), vehicle: steriod suspending solution 94 % of control

CCOC(=O)c1cnc(SC)nc1NN=C(C)C
inactive: [16] 92 % of control | [17] 95 % of control | [18] 93 % of control

O=c1[nH]cc(Nc2ccccc2)c(=O)[nH]1
inactive: [16] 95 % of control | [17] 92 % of control | [18] 88 % of control

O=C1OC(/C=C/c2ccccc2)=NC/1=C\c1ccc(Cl)cc1
inactive: dose: 100.0 mg/kg/injection, schedule: Q01DX009 (ip), vehicle: saline 105 % of control | dose: 200.0 mg/kg/injection, schedule: Q01DX009 (ip), vehicle: saline 105 % of control | dose: 400.0 mg/kg/injection, schedule: Q01DX009 (ip), vehicle: saline 94 % of control

CC[CH2][Pb]([CH2]CC)([CH2]CC)[O]C(=O)C1CCCCC1
inactive: dose: 1.5 mg/kg/injection, schedule: Q01DX009 (ip), vehicle: saline with Tween-80 100 % of control | dose: 1.5 mg/kg/injection, schedule: Q04DX003 (ip), vehicle: saline with Tween-80 106 % of control | dose: 3.0 mg/kg/injection, schedule: Q01DX009 (ip), vehicle: saline with Tween-80 100 % of control | dose: 3.0 mg/kg/injection, schedule: Q04DX003 (ip), vehicle: saline with Tween-80 116 % of control | dose: 6.0 mg/kg/injection, schedule: Q01DX009 (ip), vehicle: saline with Tween-80 104 % of control | dose: 6.0 mg/kg/injection, schedule: Q04DX003 (ip), vehicle: saline with Tween-80 104 % of control

O=CNNCc1c[nH]c(=O)[nH]c1=O
inactive: dose: 50.0 mg/kg/injection, schedule: Q01DX001 (ip), vehicle: saline 96 % of control | [19] 96 % of control | [20] 96 % of control | [21] 98 % of control

Cc1ccc(C2OC23CC(C)(C)c2ccccc2C3=O)cc1 (centres undefined)
inactive: dose: 100.0 mg/kg/injection, schedule: Q04DX003 (ip), vehicle: saline with Tween-80 93 % of control | dose: 200.0 mg/kg/injection, schedule: Q04DX003 (ip), vehicle: saline with Tween-80 96 % of control | dose: 400.0 mg/kg/injection, schedule: Q04DX003 (ip), vehicle: saline with Tween-80 93 % of control

COc1ccc(Cl)cc1NC(=O)Nc1c(C)n(C)n(-c2ccccc2)c1=O
inactive: [19] 90 % of control | [8] 89 % of control | [13] 97 % of control | [20] 89 % of control | [9] 89 % of control | [14] 101 % of control | [21] 94 % of control | dose: 400.0 mg/kg/injection, schedule: Q01DX009 (ip), vehicle: saline with Tween-80 87 % of control | [15] 92 % of control
